Like-named read-outs stand apart in the source and are kept apart here.
What was measured:
acute myeloid leukemia = tested on: acute myeloid leukemia; parameters: method as in PMID 29789314; settings: orthotopic mouse model, in combination with gemcitabine; cited from earlier work
[1] = cited from earlier work
[2] = cited from earlier work; remark: listed apart in the source
[3] = Population PK analysis (non-linear mixed-effect, two-compartment linear model) of berzosertib plasma concentrations, Studies 001 and 002; format: in vivo; settings: for cov (Q, V2) / cov (V1, Q) / cov (V1, V2): covariance; for clearance: human, plasma, read-out: Clearance CL (converted)
Procedure: Longitudinal berzosertib plasma concentration and dosing data from the two phase I clinical trials, described above, were available for the analysis. The studies were performed in accordance with the Declaration of Helsinki; all participants provided written informed consent before blood samples were collected.
Study 001 (Online Resource Figure S1) was a phase I, open-label, first-in-human multiple ascending dose study to investigate the safety, tolerability, and PK of berzosertib alone and in combination with cytotoxic chemotherapy in patients with advanced solid tumors. The RP2D or maximum tolerated dose was determined in dose escalation parts A and B with further evaluation of safety and efficacy in expansion cohorts (parts C1–3). PK data were available from 170 patients who received twice-weekly 1-h intravenous infusions of berzosertib (18–210 mg/m^2) during a 7–14-day monotherapy lead-in. This preceded combination with chemotherapies, administered on day 1, and berzosertib administered on days 2 and 9 every 21 days following (1) gemcitabine, or cisplatin and gemcitabine (54 patients, Part A); (2) cisplatin (29 patients, Part B); (3) gemcitabine in patients with non-small cell lung cancer (NSCLC; 36 patients, Part C1); (4) cisplatin in patients with triple-negative breast cancer (TNBC) basaloid subtype and BRCA wild type (37 patients, Part C2); cisplatin or carboplatin in patients with platinum-resistant small cell lung cancer (SCLC; 14 patients, Part C3). Berzosertib was also evaluated in combination with irinotecan in a subsequent study cohort (Part B2). In Study 001, Parts A and B, rich PK sampling (pre-dose, 0.5, 1 h (end of infusion), 1.5, 2, 4, 8, 24, 48, and 72 h after the start of infusion) was performed for most patients following berzosertib monotherapy in the lead-in. Similar rich PK sampling was conducted on cycle 1 days 2 through 5 after the first dose of berzosertib in combination with other agents in study parts A and B or during dose escalation. Additional sparse samples (pre-dose and 2 h after the end of infusion) were taken during cycle 1, day 9 and cycle 2, day 2. In the expansion cohorts Parts C1, C2, and C3, limited PK sampling was performed on cycle 1 day 2: pre-dose, 0.5, 1 h (end of infusion), 1.5, 2, 4, and (optionally) 8 h after the start of infusion. Similar sampling was performed on cycle 1, day 9 on a portion of the participants before being removed by amendment.
Study 002 (Online Resource Figure S1) was a phase I, open-label, multiple ascending dose study to investigate the safety, tolerability, and PK/PD profile of berzosertib as a single agent and in combination with carboplatin or carboplatin and paclitaxel in patients with advanced solid tumors. PK data were available from 70 patients who received 1-h intravenous infusions of berzosertib (1) as a single agent once weekly (11 patients, Part A1); (2) as a single agent twice weekly (6 patients, Part A2); (3) on days 2 and 9 every 21 days following carboplatin on day 1 (23 patients, Part B1); (4) on days 2 and 9 every 21 days following carboplatin and paclitaxel on day 1 (15 patients, Part B2); (5) on days 2 and 9 following carboplatin on day 1 every 21 days in patients with advanced solid tumors and lymphoma with defects in the DDR (15 patients, Part C). In Study 002, in all study parts, rich PK sampling (pre-dose, 0.5, 1 h (end of infusion), 1.5, 2, 4, 8, 24, and 48 h after start of infusion) was performed after the first dose of berzosertib. In Part A1, additional sparse samples (pre-dose, 0.5–2 h after the end of infusion) were collected on cycle 1, day 8 and day 15. […]

p-Chk1 = tested on: p-Chk1; parameters: method as in earlier work; settings: cited from earlier work
[4] = tested on: pancreatic cancer xenografts; parameters: method as in PMID 23222511, PMID 22825331; settings: after radiation and gemcitabine-based chemoradiation; cited from earlier work
pancreatic cancer cells = tested on: pancreatic cancer cells; parameters: method as in PMID 23222511, PMID 22825331; settings: pancreatic cancer cells vs normal cells; cited from earlier work
[5] = tested on: patient-derived non-small cell lung tumor xenografts; parameters: method as in PMID 25010037; settings: multiple patient-derived non-small cell lung tumor xenografts; cited from earlier work
[6] = tested on: acute myeloid leukemia cells; parameters: method as in PMID 29789314; settings: in combination with gemcitabine; cited from earlier work
CYP3A4 = settings: based on in vitro data; cited from earlier work
[7] = full covariate model, typical patient, intravenous infusion

CNCc1ccc(-c2cc(-c3nc(-c4ccc(S(=O)(=O)C(C)C)cc4)cnc3N)on2)cc1 [berzosertib, 5-(4-(Isopropylsulfonyl)phenyl)-3-(3-(4-((methylamino)methyl)phenyl)isoxazol-5-yl)pyrazin-2-amine]
survival (acute myeloid leukemia): increased survival
PK linearity over the dose range ([1]; 18–480 mg/m^2): linear
renal excretion ([1]; Study 001): 5–6%
terminal half-life ([1]; patients, intravenous, 18–480 mg/m^2): approximately 17 h
recommended phase II dose (RP2D) ([2]; days 2 and 9 following 75 mg/m^2 cisplatin (day 1)): 140 mg/m^2
recommended phase II dose (RP2D) ([2]; days 2 and 9 following 1000 mg/m^2 gemcitabine (days 1 and 8)): 210 mg/m^2
recommended phase II dose (RP2D) ([2]; days 2 and 9 following carboplatin AUC 5 (day 1)): 90 mg/m^2
Additive residual error ([3]; base model): 1.9 ng/mL
Central volume V1 ([3]; base model): 111 L
Peripheral volume V2 ([3]; base model): 861 L
Proportional residual error [sd] ([3]; base model): 0.22
cov (Q, V2) ([3]; base model): 0.089
cov (V1, Q) ([3]; base model): 0.26
cov (V1, V2) ([3]; base model): 0.093
IIV on V1 [var] ([3]; base model, variance): 0.38
IIV on Q [var] ([3]; base model, variance, first line so headed (r14)): 0.24
IIV on Q [var] ([3]; base model, variance, second line so headed (r16)): 0.071
PK interaction with evaluated chemo-combinations ([3]; berzosertib with gemcitabine, cisplatin, carboplatin, paclitaxel combinations): no evidence of a clinically significant PK interaction
V1 lower in female patients than in male patients ([3]; female vs male patients): 15.8%
Additive residual error ([3]; full covariate model): 1.73 ng/mL
Proportional residual error [sd] ([3]; full covariate model): 0.22
cov (Q, V2) ([3]; full covariate model): 0.090
cov (V1, Q) ([3]; full covariate model): 0.25
cov (V1, V2) ([3]; full covariate model): 0.081
Central volume V1 [3, 7]: 118 L
Peripheral volume V2 [3, 7]: 1030 L
IIV on Q [var] ([3]; full covariate model, variance): 0.24
IIV on V1 [var] ([3]; full covariate model, variance): 0.32
IIV on V2 [var] ([3]; full covariate model, variance): 0.047
increase for V1 ([3]; high extreme of albumin): 18%
median increase in CL ([3]; high extreme of body weight): 12%
median increase in V1 ([3]; high extremes of tumor size at baseline): 24%
clearance ([3]; intravenous, base model): 933 mL/min
clearance ([3]; full covariate model, typical patient, intravenous infusion, 240 patients, 18–480 mg/m^2): 1080 mL/min
median decrease for V2 ([3]; low extreme of age): 16.7%
median decrease for V1 ([3]; low extreme of albumin): 28.6%
decrease in CL ([3]; low extreme of body weight): 9%
higher CL in patients with TNBC ([3]; patients with TNBC vs female patients with other tumor types): 42%
total plasma concentration needed to reach 50% of maximal inhibition (IC50) of p-Chk1 in humans (p-Chk1; estimated from multiple preclinical tumor models with carboplatin, irinotecan, cisplatin or gemcitabine, adjusted for species differences in plasma protein binding): approximately 110 ng/mL
inhibition of p-Chk1 (p-Chk1; tumor-bearing mice, in combination with various chemotherapies): dose-dependent inhibition of p-Chk1
growth delay of xenografts [4]: markedly prolonged growth delay
normal cell or tissue toxicity [4]: without augmenting normal cell or tissue toxicity
sensitization to radiation and/or gemcitabine (pancreatic cancer cells): selectively sensitized pancreatic cancer cells but not normal cells
efficacy in combination with cisplatin [5]: dramatically enhanced the efficacy of cisplatin
sensitization of cells [6]: acutely sensitized acute myeloid leukemia cells
elimination via metabolism, enzyme (CYP3A4): mainly mediated by CYP3A4

Reference: article PMC7870753, “Population pharmacokinetics of ATR inhibitor berzosertib in phase I studies for different cancer types” (Cancer Chemotherapy and Pharmacology, 2020)
